Data from patent EP0476408A1, “Chemical conjugation of morpholino anthracyclines to antibodies” (RESEARCH CORPORATION TECHNOLOGIES, INC., priority 1990, dated 1992).

Tested on: A-375 cells
Assay: Cytotoxicity of conjugate versus uncoupled drug, serial dilutions
Assay type: cell-based
Conditions: drug alone versus conjugate, Figure 6

COc1cccc2c1C(=O)c1c(O)c3c(c(O)c1C2=O)C[C@@](O)(C(=O)CO)C[C@@H]3O[C@H]1C[C@H](N2CCOCC2)[C@H](O)[C@H](C)O1 [MRA, morpholino doxorubicin]
cytotoxicity: Identical cytoxicity
